Measurements from patent US12268694B2, “Combination pharmaceutical agents as RSV inhibitors” (Enanta Pharmaceuticals, Inc., priority 2017, dated 2025).
Like-named read-outs stand apart in the source and are kept apart here.

Tested on: genotype A, "Long" strain RSV
Experiment: RSV-A assay: CPE protection in HEp-2 cells, ATPlite readout
Type: cell-based, human respiratory syncytial virus
Text: HEp-2 cells, (originally derived from tumors grown in irradiated-cortisonised weanling rats that had been injected with epidermoid carcinoma tissue from a person's larynx, but later found to be indistinguishable from HeLa cells by PCR DNA analysis), were used for the culturing of genotype A, “Long” strain RSV. Flasks were inoculated with RSV and viral stocks were collected once cytopathic effect (CPE) was greater than 90%. Viral stocks in 25% sucrose media were snap frozen using liquid nitrogen to increase viral stability. Viral stock titers were quantified by tissue culture infectious dose 50% (TCID50) using 8,000 cells per well and 3-fold viral dilutions across a 96-well plate, cultured for 4 days. Viral stock titers were also quantified by a plaque forming unit assay, as described elsewhere.
Following extensive parameter testing, the final assay is run as follows: HEp-2 cells are seeded into the inner 60 wells of a 96-well plate at 8,000 cells per well in a volume of 50 μL using Growth Media (DMEM without phenol red, 1% L-Glut, 1% Penn/Strep, 1% nonessential amino acids, 10% heat-inactivated FBS). 2-fold serial dilutions of control and test compounds are added to the wells in duplicate in a total volume of 25 μL. Viral stock is then added to the wells at a multiplicity of infection (MOI) of 0.1 in a volume of 25 μL, bringing the total volume of each well to 100 μL. The MOI is calculated using the PFU/mL, or TCID50 if unavailable. Each 96-well plate has a control column of 6 wells with cells and virus but no compound (negative control, max CPE), a column with cells but no compound or virus (positive control, minimum CPE), and a column with no cells or virus or compound (background plate/reagent control). The control wells with cells but no virus are given an additional 25 μL of growth media containing an equal quantity of sucrose as those wells receiving the viral stock in order to keep consistent in media and volume conditions. The outer wells of the plate are filled with 125 μL of moat media (DMEM, 1% Penn/Strep) to act as a thermal and evaporative moat around the test wells. Following a 5-day incubation period, the plates are read using ATPlite (50 μL added per well), which quantifies the amount of ATP (a measure of cell health) present in each well. Assay plates are read using the Envision luminometer. In parallel, cytotoxicity is examined on an additional 96-well plate treated in an identical manner, but substituting the 25 μL of viral stock for 25 μL of growth media. […] EC50 ranges are as follows: A <0.4 μM; B 0.4-0.8 μM; C >0.8 μM and CC50 ranges are as follows: A >50 μM; B 10-50 μM; C <10 μM.

[1] = human respiratory syncytial virus, HEp-2, read-out: Human RSV-A (“Long” strain) EC50
[2] = HEp-2 cells, RSV-A Long strain, ATPlite readout, read-out: Human RSV-A (“Long” strain) EC50

SMILES	EC50 [1] [nM]	EC50 [2] [nM]
O=C1Nc2ccccc2C(c2ccccc2)=N[C@@H]1Nc1nnc(-c2ncc(C(F)(F)F)cc2N2CCOC3CC32)o1 (mixture of isomers) [Example 466]	< 400	
O=C1Nc2ccccc2C(c2ccccc2)=N[C@@H]1Nc1nnc(-c2ncc(C(F)(F)F)cc2N2CCOC(C(F)(F)F)C2)o1 (mixture of isomers) [Example 467]	< 400	
O=C1Nc2c(F)cccc2C(c2ccccc2)=N[C@@H]1Nc1nnc(-c2cccnc2N2CCOCC2)o1 (single isomer, unassigned) [Example 357]		> 800
O=C1Nc2c(F)cccc2C(c2ccccc2)=N[C@@H]1Nc1nnc(-c2ncc(C(F)(F)F)cc2N2CCOCC2)o1 (single isomer, unassigned) [Example 359]		< 400
CCOC1(c2nc(-c3nnc(N[C@H]4N=C(c5ccccc5)c5ccccc5NC4=O)o3)c(N3CCOCC3)s2)CCC1 (stereo in doubt) [Example 458]	< 400	
N#Cc1ccc(-c2nnc(NC3N=C(c4ccccc4)c4ccccc4NC3=O)o2)nc1 (stereo not shown) [Example 24]	400 to 800	
COc1cc(-c2nnc(NC3N=C(c4ccccc4)c4ccccc4NC3=O)o2)ccn1 (stereo not shown) [Example 56]	> 800	
CCOC(=O)c1nnc(NC2N=C(c3ccccc3)c3ccccc3NC2=O)o1 (stereo not shown) [Example 78]	> 800	
O=C1Nc2ccccc2C(c2ccccc2)=NC1Nc1ncc(-c2ccccc2)s1 (stereo not shown) [Example 85]	> 800	
O=C1Nc2ccccc2C(c2ccccc2)=NC1Nc1noc(-c2ccccc2)n1 (stereo not shown) [Example 91]	> 800	
COc1ccc(CN2C(=O)C(C)(N)N=C(c3ccccc3)c3ccccc32)cc1 (stereo not shown) [Example 102]	> 800	
CS(=O)(=O)c1ccc(-c2nnc(NC3N=C(c4ccccc4)c4ccccc4NC3=O)o2)nc1 (stereo not shown) [Example 107]	> 800	
COc1ccc(-c2nnc(NC3N=C(c4ccccc4)c4ccccc4NC3=O)o2)nc1Cl (stereo not shown) [Example 109]	> 800	
Cc1nc(-c2nnc(NC3N=C(c4ccccc4)c4ccccc4NC3=O)o2)ccc1F (stereo not shown) [Example 110]	> 800	
O=C1Nc2ccccc2C(c2ccccc2)=NC1Nc1nnc(-c2cccc(N3CCOCC3)c2)o1 (stereo not shown) [Example 111]	> 800	
O=C1Nc2ccccc2C(c2ccccc2)=NC1Nc1nnc(-c2ccc(N3CCOCC3)c(F)c2)o1 (stereo not shown) [Example 112]	> 800	
Cc1cc(-c2nnc(NC3N=C(c4ccccc4)c4ccccc4NC3=O)o2)ccc1N1CCOCC1 (stereo not shown) [Example 113]	400 to 800	
O=C1Nc2ccccc2C(c2ccccc2)=NC1Nc1nnc(-c2ccc(N3CCOCC3)cn2)o1 (stereo not shown) [Example 114]	> 800	
O=C1Nc2ccccc2C(c2ccccc2)=NC1Nc1nnc(-c2ccc(N3CCOCC3)nc2)o1 (stereo not shown) [Example 115]	< 400	
O=C1Nc2ccccc2C(c2ccccc2)=NC1Nc1nnc(-c2ccc(NC3CCCCC3)cc2)o1 (stereo not shown) [Example 116]	> 800	
COCCNc1ccc(-c2nnc(NC3N=C(c4ccccc4)c4ccccc4NC3=O)o2)cc1 (stereo not shown) [Example 117]	> 800	
COCCN(C)c1ccc(-c2nnc(NC3N=C(c4ccccc4)c4ccccc4NC3=O)o2)cc1 (stereo not shown) [Example 118]	> 800	
O=C1Nc2ccccc2C(c2ccccc2)=NC1Nc1nnc(-c2cc(F)ccc2N2CCOCC2)o1 (stereo not shown) [Example 119]	400 to 800	
CS(=O)(=O)c1ccc(-c2nnc(NC3N=C(c4ccccc4)c4ccccc4NC3=O)o2)c(N2CCOCC2)c1 (stereo not shown) [Example 121]	> 800	
O=C1Nc2ccccc2C(c2ccccc2)=NC1Nc1nnc(-c2ccc(N3CCOCC3)cc2Cl)o1 (stereo not shown) [Example 122]	> 800	
O=C1Nc2ccccc2C(c2ccccc2)=N[C@@H]1Nc1nnc(-c2ccc(N3CCOCC3)cc2)o1 [Example 124a]	< 400	

SMILES	EC50 [1] [nM]	EC50 [2] [nM]
O=C1Nc2ccccc2C(c2ccccc2)=N[C@H]1Nc1nnc(-c2ccc(N3CCOCC3)cc2)o1 [Example 124b]	> 800	
O=C1Nc2ccccc2C(c2ccccc2)=N[C@@H]1Nc1nnc(-c2ccccc2N2CCOCC2)o1 [Example 125a]	< 400	
O=C1Nc2ccccc2C(c2ccccc2)=N[C@H]1Nc1nnc(-c2ccccc2N2CCOCC2)o1 [Example 125b]	> 800	
O=C1Nc2ccccc2C(c2ccccc2)=N[C@@H]1Nc1nnc(-c2ccc(N3CCOCC3)cc2F)o1 [Example 126a]	< 400	
O=C1Nc2ccccc2C(c2ccccc2)=N[C@H]1Nc1nnc(-c2ccc(N3CCOCC3)cc2F)o1 [Example 126b]	> 800	
O=C1Nc2ccccc2C(c2ccccc2)=NC1Nc1nnc(-c2ccc(-n3cncn3)cc2N2CCOCC2)o1 (stereo not shown) [Example 128]	400 to 800	
O=C1Nc2ccccc2C(c2ccccc2)=NC1Nc1nnc(-c2ccc(C(F)(F)F)nc2N2CCOCC2)o1 (stereo not shown) [Example 130]	400 to 800	
O=C1Nc2ccccc2C(c2ccccc2)=NC1Nc1nnc(-c2ncccc2N2CCOCC2)o1 (stereo not shown) [Example 132]	< 400	
O=C1Nc2ccccc2C(c2ccccc2)=NC1Nc1nnc(-c2cnccc2N2CCOCC2)o1 (stereo not shown) [Example 133]	400 to 800	
O=C1Nc2ccccc2C(c2ccccc2)=NC1Nc1nnc(-c2cnccc2N2CCCCC2)o1 (stereo not shown) [Example 134]	> 800	
O=C1Nc2ccccc2C(c2ccccc2)=NC1Nc1nnc(-c2ncc(N3CCOCC3)cc2Cl)o1 (stereo not shown) [Example 135]	> 800	
O=C1Nc2ccccc2C(c2ccccc2)=NC1Nc1nnc(-c2ncc(F)cc2N2CCOCC2)o1 (stereo not shown) [Example 137]		> 800
O=C1Nc2ccccc2C(c2ccccc2)=NC1Nc1nnc(-c2ncc(F)cc2N2CCOCC2)o1 (stereo not shown) [Example 138]		< 400
N#Cc1cnc(-c2nnc(NC3N=C(c4ccccc4)c4ccccc4NC3=O)o2)c(N2CCOCC2)c1 (stereo not shown) [Example 140]	< 400	
O=C1Nc2ccccc2C(c2ccccc2)=NC1Nc1nnc(-c2ccncc2N2CCCCC2)o1 (stereo not shown) [Example 141]	> 800	
O=C1Nc2ccccc2C(c2ccccc2)=NC1Nc1nnc(-c2ccncc2N2CCOCC2)o1 (stereo not shown) [Example 142]	400 to 800	
O=C1Nc2ccccc2C(c2ccccc2)=NC1Nc1nnc(-c2nccnc2N2CCOCC2)o1 (stereo not shown) [Example 143]	< 400	
O=C1Nc2ccccc2C(c2ccccc2)=NC1Nc1nnc(-c2cc(F)cnc2N2CCOCC2)o1 (stereo not shown) [Example 145]	400 to 800	
O=C1Nc2ccccc2C(c2ccccc2)=NC1Nc1nnc(-c2cc(C(F)(F)F)cnc2N2CCOCC2)o1 (stereo not shown) [Example 146]	> 800	
O=C1Nc2ccccc2C(c2ccccc2)=NC1Nc1nnc(-c2ccc(N3CCOCC3)cc2C(F)(F)F)o1 (stereo not shown) [Example 147]	> 800	
O=C1Nc2ccccc2C(c2ccccc2)=NC1Nc1nnc(-c2cccc(F)c2N2CCOCC2)o1 (stereo not shown) [Example 148]	> 800	
O=C1Nc2ccccc2C(c2ccccc2)=NC1Nc1nnc(-c2ccc(F)nc2N2CCOCC2)o1 (stereo not shown) [Example 149]		400 to 800
O=C1Nc2ccccc2C(c2ccccc2)=NC1Nc1nnc(-c2ccc(F)nc2N2CCOCC2)o1 (stereo not shown) [Example 150]		< 400
O=C1Nc2ccccc2C(c2ccccc2)=N[C@@H]1Nc1nnc(-c2ccc(F)nc2N2CCOCC2)o1 [Example 151, (S)-3-((5-(6-fluoro-2-morpholinopyridin-3-yl)-1,3,4-oxadiazol-2-yl)amino)-5-phenyl-1,3-dihydro-2H-benzo[e][1,4]diazepin-2-one]	< 400	
O=C1Nc2ccccc2C(c2ccccc2)=N[C@@H]1Nc1nnc(-c2ccc(C(F)(F)F)cc2N2CCOCC2)o1 [Example 152]	< 400	
O=C1Nc2ccccc2C(c2ccccc2)=N[C@@H]1Nc1nnc(-c2ccc(C3CC3)nc2N2CCOCC2)o1 [Example 154]	< 400	
